Assay results from patent publication US20180291285A1 (Clariant International, Ltd., priority 2015, published 2018).

Experiment: Bioaccumulation log Pow (slow stirring method)
Excerpt: As mentioned before. The environmental acceptability of these esterquat surfactant compounds is of essential importance for emulsion breaking operations in oil production processes.

## Dioleic acid triethanolamine esterquat [Di-oleic acid triethanolamine esterquat]
  bioaccumulation: log Pow: 0.73
